Measured values published in patent publication US20030158267A1, “Method and compositions for inhibiting the scent tracking ability of biting midges” (priority 2002, published 2003).

Test system: biting midges (Culicoides furens)
Assay: Competitive field test: biting midges attracted to, killed by and collected in a CO2/octenol-baited heated electrical grid device, with or without test compound emitted
Type: in vivo
Details: for Midges collected: linalool 1 mg/hr; for Reduction of average biting midge kill counts: over three trials, linalool 1 mg/hr vs no linalool
Protocol: A device comprising a cylindrical housing essentially shaped like an opened one-gallon paint can, was equipped to release determinable amounts of one or more of CO2, octenol and test compound of this invention. The device housing was equipped (covered) at it its open end with an electrical grid operating at a temperature of approximately 110° F. (44° C.) for killing any midges attracted to the grid and thereby collecting the killed midges in the housing. With the device in operation, biting midges would be attracted by the scent of CO2 and/or octenol eminating from the interior of the housing and from the heat of the electrical grid. Then, with the additional introduction of test compound from the housing it was possible to determine the inhibiting effect of the test compound by determining the decrease in biting midges attracted and killed by the teat device. The test was conducted in a designated test area known for its abundance of biting midges along the Indian River in Vero Beach, Fla. at the U.S. Department of Agriculture test facility. Competitive tests were conducted over a twelve day period in September.. During Days 1 to 3 and 7 to 9 the test conditions of the test device were set to mimic a bird as the target, namely the device emitted 50 cc/min CO2 and no octenol, and during Days 4 to 6 and 10 to 12 the test conditions were set to mimic a mammal as the target, namely the device emitted 50 cc/min CO2 and 7 mg/hr octenol. In these competitive tests, the inhibiting compound was either not emitted (Days 1 to 6) or emitted (Days 7 to 12). The test then determined the number of midges killed and collected in the device without the test compound present, and the number of midges killed and collected in the device with the test compound present in order to determine the ability of the test compound to inibit the ability of the biting midges (Culicoides furens) to sense the […] target.

Work on `C=CC(C)(O)CCC=C(C)C` (centres unmarked) [Linalool, linalool] yielded a Midges collected (Day 7, device mimicking a bird: CO2 50 cc/min, octenol 0 mg/hr) of 13, a Midges collected (Day 8, device mimicking a bird: CO2 50 cc/min, octenol 0 mg/hr) of 5 and a Midges collected (Day 9, device mimicking a bird: CO2 50 cc/min, octenol 0 mg/hr) of 14. For the same compound, the Midges collected (Day 10, device mimicking a mammal: CO2 50 cc/min, octenol 7 mg/hr) was 29, the Midges collected (Day 11, device mimicking a mammal: CO2 50 cc/min, octenol 7 mg/hr) was 81 and the Midges collected (Day 12, device mimicking a mammal: CO2 50 cc/min, octenol 7 mg/hr) was 364. The “Midges collected, total” value (Days 7-9 total, bird mimic: CO2 50 cc/min, no octenol, linalool 1 mg/hr (without linalool, days 1-3: total 176)) was “Total 32”, the “Midges collected, Avg./day” value (Days 10-12 average per day, mammal mimic: CO2 50 cc/min, octenol 7 mg/hr, linalool 1 mg/hr (without linalool: 1137)) was “Avg./day 158” and the “Midges collected, total” value (Days 10-12 total, mammal mimic: CO2 50 cc/min, octenol 7 mg/hr, linalool 1 mg/hr (without linalool, days 4-6: total 3410)) was “Total 474”. For the same compound, the “Reduction of average biting midge kill counts” value (device mimicking a bird (CO2 50 cc/min, no octenol)) was 81% and the “Reduction of average biting midge kill counts” value (device mimicking a mammal (CO2 50 cc/min, octenol 7 mg/hr)) was 86%.
